Laboratory results reported in the supplement of paper PMC9663587.

How the values were obtained:
Neratinib/HKI272 [1] = compound: T1, CCOc1cc2ncc(C#N)c(Nc3ccc(OCc4ccccn4)c(Cl)c3)c2cc1NC(=O)/C=C/CN(C)C [Neratinib/HKI272]; experiment: GR value, 72 h; higher = faster growth (1 = untreated, <0 = killing);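 also: breast cancer and non-malignant breast epithelial lines, nine half-log doses, viable cells counted by Hoechst and LIVE/DEAD dye imaging versus time-zero plates and DMSO controls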
Flavopiridol [2] = compound: T2, CN1CC[C@H](c2c(O)cc(O)c3c(=O)cc(-c4ccccc4Cl)oc23)[C@H](O)C1 [Flavopiridol]; experiment: as above
YKL-5-124 = compound: C=CC(=O)Nc1ccc(C(=O)Nc2[nH]nc3c2CN(C(=O)N[C@H](CN(C)C)c2ccccc2)C3(C)C)cc1 [YKL-5-124]; experiment: increase in dead-cell fraction, 72 h; higher = more death;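 also: breast cancer cell lines in 384-well plates, stained with Hoechst plus LIVE/DEAD far red dye and imaged, cells above an LDR intensity threshold counted dead, Hoechst-negative corpses included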
[3] = compound: CCc1cnn2c(NCc3ccc[n+]([O-])c3)cc(N3CCCC[C@H]3CCO)nc12; experiment: as above
BSJ-03-123 = compound: CC(=O)c1c(C)c2cnc(Nc3ccc(N4CCN(CCOCCOCCOCCNC(=O)COc5cccc6c5C(=O)N(C5CCC(=O)NC5=O)C6=O)CC4)cn3)nc2n(C2CCCC2)c1=O [BSJ-03-123]; experiment: as above
Neratinib/HKI272 [4] = compound: T1, Neratinib/HKI272; experiment: as above
LEE011/Ribociclib = compound: CN(C)C(=O)c1cc2cnc(Nc3ccc(N4CCNCC4)cn3)nc2n1C1CCCC1 [LEE011/Ribociclib]; experiment: as above
THZ1 = compound: CN(C)C/C=C/C(=O)Nc1ccc(C(=O)Nc2cccc(Nc3ncc(Cl)c(-c4c[nH]c5ccccc45)n3)c2)cc1 [THZ1]; experiment: as above
Flavopiridol [5] = compound: T2, Flavopiridol; experiment: as above
THZ531 = compound: CN(C)C/C=C/C(=O)Nc1ccc(C(=O)N2CCC[C@@H](Nc3ncc(Cl)c(-c4c[nH]c5ccccc45)n3)C2)cc1 [THZ531]; experiment: as above
[6] = compound: CCN1CCN(Cc2ccc(Nc3ncc(F)c(-c4cc(F)c5nc(C)n(C(C)C)c5c4)n3)nc2)CC1; experiment: as above
[7] = compound: CC(=O)c1c(C)c2cnc(Nc3ccc(N4CCNCC4)cn3)nc2n(C2CCCC2)c1=O; experiment: as above

Cell Line: HCC1395
- GR value (Neratinib/HKI272 [1]; 0.0003162 µM): 1.05 GR
- GR value (Neratinib/HKI272 [1]; 0.001 µM): 1.07 GR
- GR value (Neratinib/HKI272 [1]; 0.003162 µM): 1.14 GR
- GR value (Neratinib/HKI272 [1]; 0.01 µM): 1 GR
- GR value (Neratinib/HKI272 [1]; 0.03162 µM): 1.06 GR
- GR value (Neratinib/HKI272 [1]; 0.1 µM): 0.916 GR
- GR value (Neratinib/HKI272 [1]; 0.3162 µM): 0.741 GR
- GR value (Neratinib/HKI272 [1]; 1 µM): 0.521 GR
- GR value (Neratinib/HKI272 [1]; 3.162 µM): 0.0073 GR
- GR value (Flavopiridol [2]; 0.0001 µM): 1.02 GR
- GR value (Flavopiridol [2]; 0.0003162 µM): 0.885 GR
- GR value (Flavopiridol [2]; 0.001 µM): 0.933 GR
- GR value (Flavopiridol [2]; 0.003162 µM): 0.826 GR
- GR value (Flavopiridol [2]; 0.01 µM): 0.75 GR
- GR value (Flavopiridol [2]; 0.03162 µM): 0.973 GR
- GR value (Flavopiridol [2]; 0.1 µM): 0.683 GR
- GR value (Flavopiridol [2]; 0.3162 µM): -0.0127 GR
- GR value (Flavopiridol [2]; 1 µM): -0.672 GR
- increase in dead-cell fraction (YKL-5-124; 0.001 µM): 0.0251
- increase in dead-cell fraction (YKL-5-124; 0.003162 µM): 0.0285
- increase in dead-cell fraction (YKL-5-124; 0.01 µM): 0.0648
- increase in dead-cell fraction (YKL-5-124; 0.03162 µM): 0.0466
- increase in dead-cell fraction (YKL-5-124; 0.1 µM): 0.0638
- increase in dead-cell fraction (YKL-5-124; 0.3162 µM): 0.0762
- increase in dead-cell fraction (YKL-5-124; 1 µM): 0.0835
- increase in dead-cell fraction (YKL-5-124; 3.162 µM): 0.0876
- increase in dead-cell fraction (YKL-5-124; 10 µM): 0.152
- increase in dead-cell fraction ([3]; 0.0001 µM): 0.005
- increase in dead-cell fraction ([3]; 0.0003162 µM): -0.0006
- increase in dead-cell fraction ([3]; 0.001 µM): -0.004
- increase in dead-cell fraction ([3]; 0.003162 µM): 0.0091
- increase in dead-cell fraction ([3]; 0.01 µM): 0.0238
- increase in dead-cell fraction ([3]; 0.03162 µM): 0.263
- increase in dead-cell fraction ([3]; 0.1 µM): 0.368
- increase in dead-cell fraction ([3]; 0.3162 µM): 0.378
- increase in dead-cell fraction ([3]; 1 µM): 0.387
- increase in dead-cell fraction (BSJ-03-123; 0.001 µM): 0.0154
- increase in dead-cell fraction (BSJ-03-123; 0.003162 µM): 0.0016
- increase in dead-cell fraction (BSJ-03-123; 0.01 µM): 0.0046
- increase in dead-cell fraction (BSJ-03-123; 0.03162 µM): 0.0156
- increase in dead-cell fraction (BSJ-03-123; 0.1 µM): 0.0199
- increase in dead-cell fraction (BSJ-03-123; 0.3162 µM): 0.0113
- increase in dead-cell fraction (BSJ-03-123; 1 µM): 0.0316
- increase in dead-cell fraction (BSJ-03-123; 3.162 µM): 0.0201
- increase in dead-cell fraction (BSJ-03-123; 10 µM): 0.13
- increase in dead-cell fraction (Neratinib/HKI272 [4]; 0.0003162 µM): 0.0064
- increase in dead-cell fraction (Neratinib/HKI272 [4]; 0.001 µM): -0.004
- increase in dead-cell fraction (Neratinib/HKI272 [4]; 0.003162 µM): 0.0024
- increase in dead-cell fraction (Neratinib/HKI272 [4]; 0.01 µM): 0.0027
- increase in dead-cell fraction (Neratinib/HKI272 [4]; 0.03162 µM): -0.0039
- increase in dead-cell fraction (Neratinib/HKI272 [4]; 0.1 µM): 0.0013
- increase in dead-cell fraction (Neratinib/HKI272 [4]; 0.3162 µM): 0.0091
- increase in dead-cell fraction (Neratinib/HKI272 [4]; 1 µM): 0.012
- increase in dead-cell fraction (Neratinib/HKI272 [4]; 3.162 µM): 0.141
- increase in dead-cell fraction (LEE011/Ribociclib; 0.001 µM): -0.0137
- increase in dead-cell fraction (LEE011/Ribociclib; 0.003162 µM): 0.0153
- increase in dead-cell fraction (LEE011/Ribociclib; 0.01 µM): 0.0143
- increase in dead-cell fraction (LEE011/Ribociclib; 0.03162 µM): 0.0111
- increase in dead-cell fraction (LEE011/Ribociclib; 0.1 µM): 0.0234
- increase in dead-cell fraction (LEE011/Ribociclib; 0.3162 µM): 0.0259
- increase in dead-cell fraction (LEE011/Ribociclib; 1 µM): 0.0472
- increase in dead-cell fraction (LEE011/Ribociclib; 3.162 µM): 0.0158
- increase in dead-cell fraction (LEE011/Ribociclib; 10 µM): 0.0578
- increase in dead-cell fraction (THZ1; 0.0001 µM): -0.017
- increase in dead-cell fraction (THZ1; 0.0003162 µM): -0.002
- increase in dead-cell fraction (THZ1; 0.001 µM): -0.0182
- increase in dead-cell fraction (THZ1; 0.003162 µM): 0.0057
- increase in dead-cell fraction (THZ1; 0.01 µM): 0.0001
- increase in dead-cell fraction (THZ1; 0.03162 µM): 0.0489
- increase in dead-cell fraction (THZ1; 0.1 µM): 0.193
- increase in dead-cell fraction (THZ1; 0.3162 µM): 0.25
- increase in dead-cell fraction (THZ1; 1 µM): 0.469
- increase in dead-cell fraction (Flavopiridol [5]; 0.0001 µM): -0.0165
- increase in dead-cell fraction (Flavopiridol [5]; 0.0003162 µM): 0.0036
- increase in dead-cell fraction (Flavopiridol [5]; 0.001 µM): -0.001
- increase in dead-cell fraction (Flavopiridol [5]; 0.003162 µM): 0.0024
- increase in dead-cell fraction (Flavopiridol [5]; 0.01 µM): 0.0179
- increase in dead-cell fraction (Flavopiridol [5]; 0.03162 µM): -0.0053
- increase in dead-cell fraction (Flavopiridol [5]; 0.1 µM): -0.0066
- increase in dead-cell fraction (Flavopiridol [5]; 0.3162 µM): 0.0777
- increase in dead-cell fraction (Flavopiridol [5]; 1 µM): 0.306
- increase in dead-cell fraction (THZ531; 0.0001 µM): 0.0083
- increase in dead-cell fraction (THZ531; 0.0003162 µM): -0.0121
- increase in dead-cell fraction (THZ531; 0.001 µM): 0.0071
- increase in dead-cell fraction (THZ531; 0.003162 µM): 0.0027
- increase in dead-cell fraction (THZ531; 0.01 µM): -0.0161
- increase in dead-cell fraction (THZ531; 0.03162 µM): -0.0019
- increase in dead-cell fraction (THZ531; 0.1 µM): 0.0618
- increase in dead-cell fraction (THZ531; 0.3162 µM): 0.113
- increase in dead-cell fraction (THZ531; 1 µM): 0.242
- increase in dead-cell fraction ([6]; 0.001 µM): 0.0055
- increase in dead-cell fraction ([6]; 0.003162 µM): -0.0031
- increase in dead-cell fraction ([6]; 0.01 µM): 0.0123
- increase in dead-cell fraction ([6]; 0.03162 µM): 0.0119
- increase in dead-cell fraction ([6]; 0.1 µM): 0.0163
- increase in dead-cell fraction ([6]; 0.3162 µM): 0.0184
- increase in dead-cell fraction ([6]; 1 µM): 0.0343
- increase in dead-cell fraction ([6]; 3.162 µM): 0.0632
- increase in dead-cell fraction ([6]; 10 µM): 0.447
- increase in dead-cell fraction ([7]; 0.0003162 µM): -0.0002
- increase in dead-cell fraction ([7]; 0.001 µM): -0.0025
- increase in dead-cell fraction ([7]; 0.003162 µM): -0.0071
- increase in dead-cell fraction ([7]; 0.01 µM): 0.0129
- increase in dead-cell fraction ([7]; 0.03162 µM): 0.0232
- increase in dead-cell fraction ([7]; 0.1 µM): 0.0283
- increase in dead-cell fraction ([7]; 0.3162 µM): 0.0367
- increase in dead-cell fraction ([7]; 1 µM): 0.0326
- increase in dead-cell fraction ([7]; 3.162 µM): 0.0325
